Laboratory results reported in the NIST ThermoML archive (doi:10.1016/j.jct.2016.05.015).
Numbers after ± are expanded uncertainties.

Tests used:
[1] = 100 kPa, Liquid; for viscosity: Capillary tube (Ostwald / Ubbelohde) method; for speed of sound: Frequency=2 MHz, Linear variable-path acoustic interferometer; for mass density: Vibrating tube method
[2] = xn = mol fraction of the nth substance listed; conditions: 100 kPa, Liquid, x2 = 0; for viscosity: Capillary tube (Ostwald / Ubbelohde) method; for speed of sound: Frequency=2 MHz, Linear variable-path acoustic interferometer; for mass density: Vibrating tube method

Row | Compound | viscosity ([1]; 303.15 K) [mPa·s] | speed of sound ([1]; 303.15 K) [m/s] | mass density ([1]; 303.15 K) [kg/m3] | viscosity ([1]; 308.15 K) [mPa·s] | speed of sound ([1]; 308.15 K) [m/s] | mass density ([1]; 308.15 K) [kg/m3] | viscosity ([1]; 313.15 K) [mPa·s] | mass density ([1]; 313.15 K) [kg/m3] | viscosity ([1]; 318.15 K) [mPa·s] | speed of sound ([1]; 318.15 K) [m/s] | mass density ([1]; 318.15 K) [kg/m3] | viscosity ([2]; 303.15 K) [mPa·s] | speed of sound ([2]; 303.15 K) [m/s] | mass density ([2]; 303.15 K) [kg/m3] | viscosity ([2]; 308.15 K) [mPa·s] | speed of sound ([2]; 308.15 K) [m/s] | mass density ([2]; 308.15 K) [kg/m3] | viscosity ([2]; 313.15 K) [mPa·s] | speed of sound ([2]; 313.15 K) [m/s] | mass density ([2]; 313.15 K) [kg/m3] | further results
1 | Brc1ccccc1 [bromobenzene] | 0.982 ± 0.1 | 1136 ± 7 | 1481.52 ± 20 | 0.953 ± 0.1 | 1122 ± 6.9 | 1475.36 ± 20 | 0.892 ± 0.1 | 1468.02 ± 20 | 0.848 ± 0.1 | 1099 ± 6.7 | 1461.36 ± 20 | – | – | – | – | – | – | – | – | – | speed of sound ([1]; 313.15 K): 1109 ± 6.8 m/s
2 | Brc1ccccc1 [bromobenzene] + Nc1cccc(Cl)c1 | – | – | – | – | – | – | – | – | – | – | – | 0.982 ± 0.1 | 1136 ± 7 | 1481.52 ± 20 | 0.953 ± 0.1 | 1122 ± 6.9 | 1475.36 ± 20 | 0.892 ± 0.1 | 1109 ± 6.8 | 1468.02 ± 20 | viscosity ([2]; 318.15 K): 0.848 ± 0.1 mPa·s; speed of sound ([2]; 318.15 K): 1099 ± 6.7 m/s; mass density ([2]; 318.15 K): 1461.36 ± 20 kg/m3
3 | Clc1ccccc1 [chlorobenzene] | 0.712 ± 0.1 | 1248.2 ± 7.7 | 1095.54 ± 20 | 0.675 ± 0.1 | 1226 ± 7.5 | 1089.72 ± 20 | 0.634 ± 0.1 | 1084.71 ± 20 | 0.602 ± 0.1 | 1181 ± 7.3 | 1079.45 ± 20 | – | – | – | – | – | – | – | – | – | speed of sound ([1]; 313.15 K): 1206 ± 7.4 m/s
4 | Clc1ccccc1 [chlorobenzene] + Nc1cccc(Cl)c1 | – | – | – | – | – | – | – | – | – | – | – | 0.712 ± 0.1 | 1248.2 ± 7.7 | 1095.54 ± 20 | 0.675 ± 0.1 | 1226 ± 7.5 | 1089.72 ± 20 | 0.634 ± 0.1 | 1206 ± 7.4 | 1084.71 ± 20 | viscosity ([2]; 318.15 K): 0.602 ± 0.1 mPa·s; speed of sound ([2]; 318.15 K): 1181 ± 7.3 m/s; mass density ([2]; 318.15 K): 1079.45 ± 20 kg/m3
5 | O=[N+]([O-])c1ccccc1 [nitrobenzene] | 1.627 ± 0.1 | 1438 ± 8.8 | 1193.45 ± 20 | 1.498 ± 0.1 | 1420 ± 8.7 | 1188.29 ± 20 | 1.388 ± 0.1 | 1183.69 ± 20 | 1.275 ± 0.1 | 1385 ± 8.5 | 1177.32 ± 20 | – | – | – | – | – | – | – | – | – | –
6 | O=[N+]([O-])c1ccccc1 [nitrobenzene] + Nc1cccc(Cl)c1 | – | – | – | – | – | – | – | – | – | – | – | 1.627 ± 0.1 | 1438 ± 8.8 | 1193.45 ± 20 | 1.498 ± 0.1 | 1420 ± 8.7 | 1188.29 ± 20 | 1.388 ± 0.1 | 1402 ± 8.6 | 1183.69 ± 20 | viscosity ([2]; 318.15 K): 1.275 ± 0.1 mPa·s; speed of sound ([2]; 318.15 K): 1385 ± 8.5 m/s; mass density ([2]; 318.15 K): 1177.32 ± 20 kg/m3
